Assay results from patent publication US20230331690A1, “THC DERIVATIVES, ORAL DOSAGE FORMS COMPRISING SAME, USES THEREOF FOR TREATING DISEASES AND DISORDERS AND SYNTHESIS THEREOF” (BAR-ILAN UNIVERSITY, priority 2020, published 2023).

Assays:
[1] = Pharmacokinetics, blood samples (Example 17); conditions: 0.5 h after i.p. injection of THC or THC-d5, label = analyte; for Component in the blood, Average: n=6 (THC-d5 n=5)
Method: The pharmacokinetics of 9-CD3-(8-D2)-THC compared to natural THC was evaluated using both intraperitoneal i.p. injection and an oral gavage administration for each material. The mice were divided into four groups containing 6 mice (24 mice total). For each group of mice, a blood sample was withdrawn at baseline (t=0), and half-hour intervals (t=0.5, 2 and 5 h) after administration of the drug. Three mice, half of each group, were euthanized with CO2 after 5 h and their organs (brain and liver) were collected. From the second half of each group, another blood sample was withdrawn 24 h after administration, and then these animals were euthanized and the brain and liver were collected for analysis.

[2] = Pharmacokinetics, liver samples (Example 17); type: in vivo, mice; conditions: label = analyte; for Component in the liver, Average: n=3
[3] = Persistence over time, blood samples (Example 18); type: in vivo, mice; conditions: label = analyte
Method: (§1) Blood samples from each mouse were collected at each time point for the pharmacokinetics tests. For 6 h after administrating of all tested drugs, and after testing their WRL on the hot plate, half the mice (n=3) of each group were sacrificed, and the liver and brain of each animal were taken for pharmacokinetics tests. From the remaining mice, blood samples were acquired at 12 h after administration for pharmacokinetics tests. At 24 h after drug administration, and after checking the WRL again, second half of each group of mice were sacrificed, and the liver and brain of each animal were taken for pharmacokinetics tests.

[4] = Persistence over time, liver samples postmortem (Example 18); type: in vivo, mice
Method: as §1
(§2) All the results of the brain and liver samples, which were taken postmortem 6 h or 24 h after administration (n=3) are summarized in Tables 12-13.

[5] = Persistence over time, brain samples postmortem (Example 18); type: in vivo, mice; conditions: 8 mg/kg administered, died at 6 h; number in brackets = mice with a value
Method: as §1, §2

[6] = 5 h after oral gavage administration of THC or THC-d5
[7] = 24 h after i.p. injection of THC or THC-d5
[8] = 4 mg/kg administration of THC or THC-d5, Time 0.5 h
[9] = 4 mg/kg administration, Time 3 h
[10] = 8 mg/kg administration of THC or THC-d5, Time 0.5 h
[11] = 8 mg/kg administration, Time 3 h
[12] = 2 mg/kg administered, died at 6 h
[13] = 4 mg/kg administered, died at 6 h
[14] = 8 mg/kg administered, died at 6 h

| Compound | Component in the blood, mouse 1 [1] | Component in the blood, mouse 2 [1] | Component in the blood, mouse 3 [1] | Component in the blood, mouse 4 [1] | Component in the blood, mouse 5 [1] | Component in the blood, mouse 6 [1] | Component in the blood, Average [1] | Component in the liver, mouse 1 [2, 6] | Component in the liver, mouse 2 [2, 6] | Component in the liver, mouse 3 [2, 6] | Component in the liver, Average [2, 6] | Component in the liver, mouse 3 [2, 7] | Average results, blood samples [3, 8] | Average results, blood samples [3, 9] | Average results, blood samples [3, 10] | Average results, blood samples [3, 11] | Average results for 3 mice (Table 13, liver) [4, 12] | Average results for 3 mice (Table 13, liver) [4, 13] | Average results for 3 mice (Table 13, liver) [4, 14] | Average results for 3 mice - brain samples [5] | other results |
| --- | --- | --- | --- | --- | --- | --- | --- | --- | --- | --- | --- | --- | --- | --- | --- | --- | --- | --- | --- | --- | --- |
| CCCCCc1cc(O)c2c(c1)OC(C)(C)[C@@H]1CCC(CO)=C[C@@H]21 [11-OH-THC] | 2.40 ng/mL | 2.44 ng/mL | 2.10 ng/mL | 3.43 ng/mL | 2.27 ng/mL | 2.37 ng/mL | 2.50 ng/mL | 6.56 ng/mL | 23.90 ng/mL | 2.83 ng/mL | 11.10 ng/mL | 1.46 ng/mL | 1.54 ng/mL | 0.18 (2/2) ng/mL | 1.96 ng/mL | 0.44 ng/mL | 8.76 ng/g | 41.89 ng/g | 22.94 ng/g | 5.2 (2) ng/g | Component in the liver, mouse 1 [2, 7]: 0.37 ng/mL; Component in the liver, mouse 2 [2, 7]: 3.12 ng/mL; Average results for 3 mice (Table 13, liver) ([4]; 8 mg/kg administered, died at 24 h, number in brackets = mice with a value): 5.57 (1) ng/g |
| CCCCCc1cc(O)c2c(c1)OC(C)(C)[C@@H]1CCC(C(=O)O)=C[C@@H]21 [11-COOH-THC, 11-nor-9-carboxy-THC] | 30.26 ng/mL | 22.27 ng/mL | 20.76 ng/mL | 32.18 ng/mL | 25.30 ng/mL | 19.81 ng/mL | 25.10 ng/mL | 38.89 ng/mL | 33.82 ng/mL | 25.34 ng/mL | 32.68 ng/mL | 1.49 ng/mL | 11.87 ng/mL | 1.39 (4/4) ng/mL | 15.85 ng/mL | 3.44 ng/mL | 3.83 ng/g | 46.06 ng/g | 60.95 ng/g | 2.04 (1) ng/g | Average results, blood samples ([3]; 4 mg/kg administration, Time 6 h): 0.41 (2/2) ng/mL; Average results, blood samples ([3]; 8 mg/kg administration, Time 6 h): 3.57 ng/mL; Average results, blood samples ([3]; 8 mg/kg administration, Time 12 h (3 mice)): 1.89 ng/mL; Average results for 3 mice (Table 13, liver) ([4]; 4 mg/kg administered, died at 24 h, number in brackets = mice with a value): 2.89 (1) ng/g |
